Measured values reported in patent publication US6559166B1, “Phenylsulphonyl derivatives as 5-HT receptor ligands” (Merck Sharp & Dohme Ltd., priority 1999, dated 2003).

Columns and labels:
[1] = target: human dopamine D2 receptor (Homo sapiens, UniProt P14416); details: cited from earlier work
Sequence of human dopamine D2 receptor (P14416 whole entry): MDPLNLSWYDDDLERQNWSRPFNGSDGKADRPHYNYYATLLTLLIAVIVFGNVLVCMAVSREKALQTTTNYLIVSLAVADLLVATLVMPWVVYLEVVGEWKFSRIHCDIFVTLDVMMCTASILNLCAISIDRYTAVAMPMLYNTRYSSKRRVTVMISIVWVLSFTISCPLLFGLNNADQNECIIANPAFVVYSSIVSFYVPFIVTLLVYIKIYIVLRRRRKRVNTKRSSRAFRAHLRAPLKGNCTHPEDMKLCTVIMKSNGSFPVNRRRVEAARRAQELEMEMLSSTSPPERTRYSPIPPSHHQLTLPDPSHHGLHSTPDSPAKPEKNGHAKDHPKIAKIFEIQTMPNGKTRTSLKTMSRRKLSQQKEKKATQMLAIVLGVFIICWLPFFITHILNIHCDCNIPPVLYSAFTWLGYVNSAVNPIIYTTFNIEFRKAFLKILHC

SMILES | melting point [°C] | activity at the human dopamine D2 receptor [1]
O=S(=O)(c1ccc(Cn2cnnn2)cc1)C1CCN(CCc2ccc(F)cc2F)CC1 [Example 12, 1-[2-(2,4-Difluorophenyl)ethyl]-4-[4-(tetrazol-1-ylmethyl)phenylsulphonyl]piperidine] | 168 to 169 | –
COc1cccc(C(O)C2CCN(CCc3ccc(F)cc3)CC2)c1OC (stereo not drawn) [MDL-100,907, (+)-α-(2,3-dimethoxyphenyl)-1-[2-(4-fluorophenyl)ethyl]-4-piperidinemethanol] | – | essentially devoid of activity
